According to US4820834A, “Benzodiazepine analogs” (priority 1987, dated 1989):
Where two headings read alike, the source gives them in different places.

Columns and labels:
[1] = molecular target: T1, Gastrin receptor (gastric glands) (Cavia porcellus, UniProt H0VZC5); assay: Gastrin Receptor Binding in Guinea Pig Gastric Glands; set-up: species or system guinea pig (male Hartley); settings: 25° C., 30 minutes
T1 construct: The washed guinea pig gastric glands prepared as above were resuspended; from tissue; host or cells: guinea pig gastric mucosal glands (male Hartley)
T1 sequence (H0VZC5 1-426): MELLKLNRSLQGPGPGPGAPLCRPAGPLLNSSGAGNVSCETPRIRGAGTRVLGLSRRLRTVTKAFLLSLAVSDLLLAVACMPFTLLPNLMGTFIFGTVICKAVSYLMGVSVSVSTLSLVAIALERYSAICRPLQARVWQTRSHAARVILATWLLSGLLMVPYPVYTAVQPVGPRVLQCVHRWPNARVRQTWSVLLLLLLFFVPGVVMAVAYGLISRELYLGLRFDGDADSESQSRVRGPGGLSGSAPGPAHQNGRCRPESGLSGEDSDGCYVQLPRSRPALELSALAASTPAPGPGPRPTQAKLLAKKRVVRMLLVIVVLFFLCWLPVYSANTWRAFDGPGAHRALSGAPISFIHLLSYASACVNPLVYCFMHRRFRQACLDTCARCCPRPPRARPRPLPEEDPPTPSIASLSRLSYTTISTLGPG

CCK receptor (pancreas) = molecular target: T2, CCK receptor (pancreas) (Rattus norvegicus, UniProt P30551); assay: CCK Receptor Binding (Pancreas): inhibition of ^125 I-CCK-33 binding; set-up: species or system Male Sprague-Dawley rats
T2 construct: The whole pancreas was dissected free of fat tissue and was homogenized; from tissue; host or cells: rat pancreas membranes (Sprague-Dawley)
T2 sequence (P30551 1-444): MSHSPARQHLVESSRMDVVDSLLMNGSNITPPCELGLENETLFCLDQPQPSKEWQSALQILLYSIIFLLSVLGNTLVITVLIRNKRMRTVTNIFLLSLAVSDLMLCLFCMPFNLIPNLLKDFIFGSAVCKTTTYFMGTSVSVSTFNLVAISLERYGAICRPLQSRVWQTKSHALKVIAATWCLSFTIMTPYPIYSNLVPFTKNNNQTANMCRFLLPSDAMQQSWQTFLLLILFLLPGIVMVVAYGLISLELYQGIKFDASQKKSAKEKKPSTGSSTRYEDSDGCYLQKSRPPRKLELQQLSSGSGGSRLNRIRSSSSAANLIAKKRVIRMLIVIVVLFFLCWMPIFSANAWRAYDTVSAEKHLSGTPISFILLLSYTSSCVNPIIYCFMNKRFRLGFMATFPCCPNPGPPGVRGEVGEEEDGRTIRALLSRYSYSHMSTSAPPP
How it was run: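 Rat (male Sprague-Dawley) pancreatic membranes in 50 mM Tris HCl pH 7.7 with DTT, bacitracin, PMSF and o-phenanthroline; ^125I-Bolton Hunter-labelled CCK-33 as radioligand. Incubation 30 min at 37° C, separation by centrifugation, pellet gamma-counted; Scatchard analysis by diluting ^125I-CCK-33 with increasing CCK-33.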

[2] = molecular target: T3, CCK receptor (brain, cerebral cortex) (Cavia porcellus, UniProt H0VZC5); assay: biochemical; format: binding, Male Hartley guinea pigs
T3 construct: Cerebral cortex was dissected and used as a receptor source; from tissue; host or cells: guinea pig cerebral cortex membranes (male Hartley)
T3 sequence (H0VZC5 1-426): T1 sequence (H0VZC5 1-426)
How it was run: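 Guinea pig cerebral cortex homogenate as receptor source, with radiolabeled CCK-33 in HEPES buffer containing MgCl2, bacitracin, EGTA and 0.4% BSA. Incubation 2 h at 25°C; bound ligand pelleted by centrifugation and gamma-counted.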

[3] = ^125 I-gastrin, read-out: IC50 ^125 I-Gastrin Gastric Glands
[4] = rat pancreas membranes, ^125 I-CCK-33, 37° C., 30 minutes; read-out: IC50 ^125 I-CCK Pancreas
[5] = read-out: IC50 ^125 I-CCK Brain; guinea pig cerebral cortex, ^125 I-CCK-33, 25° C., 2 hours
[6] = IC50 ^125 I-Gastrin Gastric Glands
[7] = IC50 ^125 I-CCK Brain, guinea pig cerebral cortex, ^125 I-CCK-33, 25° C., 2 hours
[8] = guinea pig cerebral cortex, ^125 I-CCK-33, 25° C., 2 hours; read-out: IC50 ^125 I-CCK Brain
[9] = IC50 ^125 I-CCK Pancreas, rat pancreas membranes, ^125 I-CCK-33, 37° C., 30 minutes

Molecule: CN1C(=O)[C@H](NC(=O)c2ccccc2Cl)N=C(c2ccccc2)c2ccccc21 [Example 151, 3(R)-(+)-3-(2-Chlorobenzoylamino)-1,3-dihydro-1-methyl-5-phenyl-2H-1,4-benzodiazepin-2-one]
- IC50 [1, 3]: 7.5 µM
- IC50 (CCK receptor (pancreas); [4]): 11 µM
- IC50 [2, 5]: 22 µM

Molecule: CN1C(=O)[C@H](NC(=O)Nc2cccc(Br)c2)N=C(c2ccccc2)c2ccccc21 [Example 282, (R)-N-(2,3-Dihydro-1-methyl-2-oxo-5-phenyl-1H-1,4-benzodiazepin-3-yl)-N'-(3-bromophenyl)-urea]
- IC50 [1, 6]: 0.0016 µM
- IC50 (CCK receptor (pancreas); [4]): 0.84 µM
- IC50 [2, 7]: 0.0038 µM

Molecule: CN1C(=O)C(NC(=O)Nc2ccc([N+](=O)[O-])cc2)N=C(c2ccccc2)c2ccccc21 (stereo not drawn) [Example 256, N-(4-Nitrophenyl)-N'-(2,3-dihydro-1-methyl-2-oxo-5-phenyl-1H-1,4-benzodiazepin-3-yl)-urea]
- IC50 [1, 3]: 0.0098 µM
- IC50 (CCK receptor (pancreas); [4]): 0.21 µM
- IC50 [2, 8]: 0.046 µM

Molecule: CCN1C(=O)[C@@H](Cc2c[nH]c3ccccc23)N=C(c2ccccc2F)c2ccccc21 [Example 36, 1,3-Dihydro-1-ethyl-5-(2-fluorophenyl)-3(R)-(3'-indolyl)methyl-2H-1,4-benzodiazepin-2-one]
- IC50 [1, 6]: > 100 µM
- IC50 (CCK receptor (pancreas); [9]): 0.3 µM
- IC50 [2, 7]: 30 µM

Molecule: O=C1Nc2ccccc2C(c2ccccc2)=NC1Cc1c[nH]c2ccc(Br)cc12 (racemic) [Example 57, 3(RS)-[3'-(5'-Bromoindolyl)methyl]-1,3-dihydro-5-phenyl-2H-1,4-benzodiazepin-2-one]
- IC50 [1, 6]: 700 µM
- IC50 (CCK receptor (pancreas); [9]): 2.9 µM
- IC50 [2, 7]: 100 µM

Molecule: NCC1N=C(c2ccccc2F)c2ccccc2NC1=O (racemic) [Example 63, 1,3-Dihydro-5-(2'-fluorophenyl)-3(RS)-aminomethyl-2H-1,4-benzodiazepin-2-on]
- IC50 [1, 6]: > 1000 µM
- IC50 (CCK receptor (pancreas); [9]): > 100 µM
- IC50 [2, 7]: > 100 µM

Molecule: 1-(2-Cyanoethyl)-1,3-dihydro-5-(2-fluorophenyl)-3(R)-(3'-indolyl)methyl-2H- 1,4-benzodiazepin-2-one (A, 85%) and 1-(2-cyanoethyl)-1,3-dihydro-5-(2-fluorophenyl)-3(R)-[1'-(2-cyanoethyl)-3'-indolyl]-methyl-2H-1,4-benzodiazpin-2-one (B, 15%) [Example 102]
- IC50 [1, 3]: 12.8 µM
- IC50 (CCK receptor (pancreas); [4]): 0.7 µM
- IC50 [2, 8]: 30 µM

Molecule: Cc1cccc2c1N(C)C(=O)C(NC(=O)c1cc3ccccc3[nH]1)N=C2c1ccccc1 (stereo not drawn) [Example 289, 3-N-(2,3-Dihydro-1,9-dimethyl-2-oxo-5-phenyl-1H-1,4-benzodiazepin-3-yl)-1H-indole-2-carboxamide]
- IC50 [1, 3]: 0.66 µM
- IC50 (CCK receptor (pancreas); [9]): 0.0001 µM
- IC50 [2, 8]: 0.089 µM

Molecule: CC(C)(C)OC(=O)N[C@@H](Cc1c[nH]c2ccccc12)C(=O)NC1N=C(c2ccccc2)c2ccccc2NC1=O (mixture of isomers) [Example 77, 3(RS)-(Boc-L-tryptophanyl)amino-1,3-dihydro-5-phenyl-2H-1,4-benzodiazepin-2-one]
- IC50 [1, 6]: 250 µM
- IC50 (CCK receptor (pancreas); [9]): 6 µM
- IC50 [2, 7]: 20 µM

Molecule: CN1C(=O)[C@@H](NC(=O)c2ccc(C#N)cc2)N=C(c2ccccc2F)c2ccccc21 [Example 162, 3(S)-(+)-3-(4-Cyanobenzoylamino)-1,3-dihydro-5-(2-fluorophenyl)-1-methyl-2H-1,4-benzodiazeoin-2-one]
- IC50 [1, 3]: 9 µM
- IC50 (CCK receptor (pancreas); [4]): 0.043 µM
- IC50 [2, 7]: 31 µM

Molecule: O=C1Nc2ccccc2C(c2ccccc2F)=N[C@@H]1CC1CNc2ccccc21 (stereo partly drawn) [Example 10]
- IC50 [1, 3]: 47 µM
- IC50 (CCK receptor (pancreas); read-out: IC50 ^125 I-CCK Pancreas; rat pancreas membranes, ^125 I-CCK-33, 37° C., 30 minutes): 16.7 µM
- IC50 [2, 5]: > 100 µM

Molecule: O=C(Nc1ccc(Cl)cc1)NC1N=C(c2ccccc2)c2ccccc2N(CC(=O)N2CCCC2)C1=O (stereo not drawn) [Example 236, 1-((3-((((4-Chlorophenyl)amino)carbonyl)amino)-2,3-dihydro-2-oxo-5-phenyl-1H-1,4-benzodiazepin-1-yl)acetyl)pyrrolidine]
- IC50 [1, 3]: 0.0005 µM
- IC50 (CCK receptor (pancreas); [4]): 0.52 µM
- IC50 [2, 8]: 0.00028 µM

Molecule: CCCCNC(=O)CN1C(=O)C(NC(=O)OCc2ccccc2)N=C(c2ccccc2)c2ccccc21 (stereo not drawn) [Example 213, {2,3-Dihydro-2-oxo-1-[2-oxo-2-(butylamino)ethyl]-5-phenyl-1H-1,4-benzodiazepin-3-yl}-carbamic acid phenylmethyl ester]
- IC50 [1, 3]: 0.28 µM
- IC50 (CCK receptor (pancreas); [9]): 2.1 µM
- IC50 [2, 8]: 0.38 µM

Molecule: CN1C(=O)[C@@H](NC(=O)c2ccc(I)cc2)N=C(c2ccccc2F)c2ccccc21 [Example 159, 3(S)-(+)-1,3-Dihydro-5-(2-fluorophenyl)-3-(4-iodobenzoylamino)-1-methyl-2H-1,4-benzodiazepin-2-one]
- IC50 [1, 3]: 0.53 µM
- IC50 (CCK receptor (pancreas); [9]): 0.0034 µM
- IC50 [2, 7]: 3 µM

Molecule: CC(C)(C)C(=O)OCOC(=O)CN1C(=O)C(NC(=O)c2cc3ccccc3[nH]2)N=C(c2ccccc2)c2ccccc21 (stereo not drawn) [Example 279, 1-Pivaloyloxymethyloxycarbonylmethyl-1,3-dihydro-3-(2-indolecarbonylamino)-5-phenyl-2H-1,4-benzodiazepin-2-one]
- IC50 [1, 3]: 0.6 µM
- IC50 (CCK receptor (pancreas); [9]): 0.011 µM
- IC50 [2, 8]: 0.31 µM

Molecule: CCOC(=O)C(C)N1C(=O)C(NC(=O)OCc2ccccc2)N=C(c2ccccc2)c2ccccc21 (stereo not drawn) [Example 242]
- IC50 [1, 3]: 0.87 µM
- IC50 (CCK receptor (pancreas); [9]): 0.9 µM
- IC50 [2, 8]: 2.3 µM

Molecule: O=C(OC1N=C(c2ccccc2)c2ccccc2NC1=O)c1cc2ccccc2[nH]1 (racemic) [Example 107, 1,3-Dihydro-3-(RS)-(2-indolecarbonyloxy)-5-phenyl-2H-1,4-benzodiazepin-2-one]
- IC50 [1, 6]: > 10 µM
- IC50 (CCK receptor (pancreas); [9]): 0.049 µM
- IC50 [2, 7]: 50 µM

Molecule: CN1C(=O)C(NC(=O)[C@@H](Cc2ccccc2)NC(=O)OC(C)(C)C)N=C(c2ccccc2F)c2ccccc21 (stereo partly drawn) [Example 231, (2-((5-(2-Fluorophenyl)-2,3-dihydro-1-methyl-2-oxo-1H-1,4-benzodiazepin-3-yl)amino)-2-oxo-1-(phenylmethyl)ethyl)-carbamic acid 1,1-dimethylethyl ester]
- IC50 [1, 3]: 2.9 µM
- IC50 (CCK receptor (pancreas); [9]): 0.58 µM
- IC50 [2, 8]: 2.7 µM

Molecule: O=C(NC1N=C(c2ccccc2F)c2ccccc2NC1=S)c1ccc(Cl)cc1 (racemic) [Example 180, 1,3-Dihydro-5-(2-fluorophenyl)-3-(RS)-(4-chlorophenyl)carbonylamino-2H-1,4-benzodiazepin-2-thione]
- IC50 [1, 6]: 11 µM
- IC50 (CCK receptor (pancreas); [9]): 0.016 µM
- IC50 [2, 7]: > 100 µM

Molecule: COc1cccc(CC(=O)N[C@H]2N=C(c3ccccc3)c3ccccc3N(C)C2=O)c1 [Example 268, (S)-N-(2,3-Dihydro-1-methyl-2-oxo-5-phenyl-1H-1,4-benzodiazepin-3-yl)-3-methoxybenzeneacetamide]
- IC50 [1, 3]: 0.42 µM
- IC50 (CCK receptor (pancreas); [9]): 0.33 µM
- IC50 [2, 8]: 2.1 µM

Molecule: Cc1ccc(S(=O)(=O)NC2N=C(c3ccccc3F)c3ccccc3NC2=O)cc1 (racemic) [Example 112, 1,3-Dihydro-3-(RS)-(4-methylphenylsulfonyl)amino-5-(2-fluorophenyl)-2H-1,4-benzodiazepin-2-one]
- IC50 [1, 3]: > 10 µM
- IC50 (CCK receptor (pancreas); [9]): 24 µM
- IC50 [2, 8]: > 50 µM

Molecule: Cc1cccc2c1NC(=O)C(NC(=O)c1cc3ccccc3[nH]1)N=C2c1ccccc1 (stereo not drawn) [Example 287, 3-N-(2,3-Dihydro-9-methyl-2-oxo-5-phenyl-1H-1,4-benzodiazeoin-3-yl)-1H-indole-2-carboxamide]
- IC50 [1, 3]: 0.95 µM
- IC50 (CCK receptor (pancreas); [9]): 0.00074 µM
- IC50 [2, 8]: 1 µM

Molecule: CN1C(=O)[C@@H](NC(=O)c2ccccc2Cl)N=C(c2ccccc2)c2ccccc21 [Example 150, 3(S)-(-)-3-(2-Chlorobenzoylamino)-1,3-dihydro-1-methyl-5-phenyl-2H-1,4-benzodiazepin-2-one]
- IC50 [1, 3]: 130 µM
- IC50 (CCK receptor (pancreas); [4]): 1.7 µM
- IC50 [2, 5]: 83 µM
